In one data set the target is T1, RAR gamma (Homo sapiens, UniProt P13631).
T1 sequence (P13631 185-454 limits assumed): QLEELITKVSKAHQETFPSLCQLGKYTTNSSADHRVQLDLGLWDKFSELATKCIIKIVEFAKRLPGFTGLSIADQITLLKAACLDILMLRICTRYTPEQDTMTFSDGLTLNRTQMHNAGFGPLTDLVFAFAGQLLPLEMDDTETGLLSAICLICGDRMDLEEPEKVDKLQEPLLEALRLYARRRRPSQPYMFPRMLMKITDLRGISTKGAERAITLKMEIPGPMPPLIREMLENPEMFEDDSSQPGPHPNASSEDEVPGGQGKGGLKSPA
In words: Transactivation test (Kd apparent), RAR gamma. As to conditions: HeLa cells stably transfected with ERE-βGlob-Luc-SV-Neo reporter and RAR γ ER-DBD-puro; luciferase; Schild regression vs reference antagonist; read-out: RAR gamma Kd app. It is filed as cell-based. The protocol: (§1) The compounds according to the invention have activating properties on RAR-type receptors. This RAR-receptor-activating activity is measured in a test of transactivation by means of the dissociation constant Kdapp (apparent).
(§2) The activation of receptors with an agonist (activator) in HeLa cells leads to the expression of a reporter gene, luciferase, which, in the presence of a substrate, generates light. The activation of the receptors may thus be measured by quantifying the luminescence produced after incubating the cells in the presence of a reference agonist. The activating products displace the agonist from its site, thus preventing activation of the receptor. The activity is measured by quantifying the decrease in light produced. This measurement makes it possible to determine the activating activity of the compounds according to the invention.
(§3) In this study, a constant is determined which represents the affinity of the molecule for the receptor. Since this value can fluctuate depending on the basal activity and the expression of the receptor, it is referred to as the Kd apparent (KdApp).
(§4) To determine this constant, the cells are brought into contact with a concentration of the test product and a concentration of the reference antagonist, 4-(5,5-dimethyl-8-p-tolyl-5,6-dihydro-2-naphthalen-2-ylethynyl)benzoic acid. Measurements are also taken for the total agonist (4-[2-(5,5,8,8-tetramethyl-5,6,7,8-tetrahydro-2-naphthyl)propenyl]benzoic acid) and inverse agonist, 4-{(E)-3-[4-(4-tert-butylphenyl)-5,5,8,8-tetramethyl-5,6,7,8-tetrahydro-2-naphthyl]-3-oxopropenyl}benzoic acid, controls.
(§5) These crossed curves make it possible to determine the AC50 values (concentration at which 50% activation is observed) for the reference ligand at various concentrations of test product. These AC50 values are used to calculate the Schild regression by plotting a straight line corresponding to the Schild equation (“Quantitation in Receptor Pharmacology” Terry P. Kenakin, Receptors and Channels, 2001, 7, 371-385).
(§6) In the case of an agonist, an AC50 value (concentration that gives 50% of the activity) is calculated by plotting the curve of the product at the concentration of the reference ligand that gives 80% activation.
(§7) The HeLa cell lines used are stable transfectants containing the plasmids ERE-βGlob-Luc-SV-Neo (reporter gene) and RAR (α, β, γ) ER-DBD-puro. These cells are inoculated into 96-well plates at a rate of 10,000 cells per well in 100 μl of DMEM medium without phenol red, and supplemented with 10% defatted calf serum. The plates are then incubated at 37° C. and 7% CO2 for 4 hours.
(§8) The various dilutions of the test products, of the reference ligand (4-(5,5-dimethyl-8-p-tolyl-5,6-dihydro-2-naphthalen-2-ylethynyl)benzoic acid), of the 100% control (100 nM 4-[2-(5,5,8,8-tetramethyl-5,6,7,8-tetrahydro-2-naphthyl)propenyl]benzoic acid) and of the 0% control (500 nM 4-{(E)-3-[4-(4-tert-butylphenyl)-5,5,8,8-tetramethyl-5,6,7,8-tetrahydro-2-naphthyl]-3-oxopropenyl}benzoic acid) are added at a rate of 5 μl per well. The plates are then incubated for 18 hours at 37° C. and 7% CO2.
(§9) The culture medium is removed by turning over and 100 μl of a 1:1 PBS/luciferin mixture is added to each well. After 5 minutes, the plates are read using the luminescence reader.

In the next data set the target is T2, RAR alpha (Homo sapiens, UniProt P10276).
T2 sequence (P10276 183-417 limits assumed): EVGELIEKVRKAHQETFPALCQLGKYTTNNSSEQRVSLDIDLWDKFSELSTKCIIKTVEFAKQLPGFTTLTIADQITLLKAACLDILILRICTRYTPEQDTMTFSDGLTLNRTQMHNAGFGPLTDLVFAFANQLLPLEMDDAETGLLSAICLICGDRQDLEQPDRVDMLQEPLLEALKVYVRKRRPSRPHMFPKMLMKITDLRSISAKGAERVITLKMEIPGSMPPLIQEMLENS
In words: Transactivation test (Kd apparent), RAR alpha. The data set is classed as cell-based. As to conditions: HeLa cells stably transfected with ERE-βGlob-Luc-SV-Neo reporter and RAR α ER-DBD-puro; luciferase; Schild regression vs reference antagonist; read-out: RAR alpha KD app. The protocol:
as §1, §2, §3, §4, §5, §6, §7, §8, §9

Another data set concerns the target T3, RAR beta (Homo sapiens, UniProt P10826).
T3 sequence (P10826 183-417 limits assumed): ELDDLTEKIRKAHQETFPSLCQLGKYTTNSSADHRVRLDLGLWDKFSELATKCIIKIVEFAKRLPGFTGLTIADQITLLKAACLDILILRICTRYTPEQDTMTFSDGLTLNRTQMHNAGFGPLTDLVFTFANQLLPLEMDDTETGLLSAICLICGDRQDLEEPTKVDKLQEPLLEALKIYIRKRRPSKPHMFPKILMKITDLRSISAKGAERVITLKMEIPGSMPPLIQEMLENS
Briefly: Transactivation test (Kd apparent), RAR beta. It is filed as cell-based. As to conditions: HeLa cells stably transfected with ERE-βGlob-Luc-SV-Neo reporter and RAR β ER-DBD-puro; luciferase; Schild regression vs reference antagonist; read-out: RAR beta Kd app. The protocol:
as §1, §2, §3, §4, §5, §6, §7, §8, §9

Consider `CC1(C)CCC(C)(C)c2cc(-c3cc(-c4ccc(C(=O)O)cc4)ccc3OCCCN)ccc21` [Compound 65, 4′-(3-Aminopropoxy)-3′-(5,5,8,8-tetramethyl-5,6,7,8-tetrahydronaphth-2-yl)biphenyl-4-carboxylic acid], for which the Kd on RAR gamma turned out to be 8 nM.

As for `CC1(C)CCC(C)(C)c2cc(-c3cc(-c4ccc(C(=O)O)cc4)ccc3OCCCCCNC3CC3)ccc21` [Compound 69, 4′-(5-Cyclopropylaminopentyloxy)-3′-(5,5,8,8-tetramethyl-5,6,7,8-tetrahydronaphth-2-yl)biphenyl-4-carboxylic acid], the Kd at RAR alpha was found to be 2000 nM; on RAR beta, 500 nM; on RAR gamma, 250 nM.

On to `CC1(C)CCC(C)(C)c2cc(-c3cc(-c4ccc(C(=O)O)cc4)ccc3OCCCCCN)ccc21` [Compound 73, 4′-(5-Aminopentyloxy)-3′-(5,5,8,8-tetramethyl-5,6,7,8-tetrahydronaphth-2-yl)biphenyl-4-carboxylic acid], for which the Kd on RAR alpha was 2000 nM; on RAR beta it was 2000 nM; at RAR gamma, 120 nM.

As for `CCNCCCOc1ccc(-c2ccc(C(=O)O)cc2)cc1-c1ccc2c(c1)C(C)(C)CCC2(C)C` [Compound 63, 4′-(3-Ethylaminopropoxy)-3′-(5,5,8,8-tetramethyl-5,6,7,8-tetrahydronaphth-2-yl)biphenyl-4-carboxylic acid], the Kd at RAR gamma worked out at 250 nM.

Take `CC1(C)CCC(C)(C)c2cc(-c3cc(-c4ccc(C(=O)O)cc4)ccc3OCCNC3CC3)ccc21` [Compound 67, 4′-(2-Cyclopropylaminoethoxy)-3′-(5,5,8,8-tetramethyl-5,6,7,8-tetrahydronaphth-2-yl)biphenyl-4-carboxylic acid]: the Kd at RAR alpha was 1000 nM; on RAR beta, 60 nM; on RAR gamma, 4 nM.

`CCNCCCOc1ccc(-c2ccc(C(=O)OCC)cc2)cc1-c1ccc2c(c1)C(C)(C)CCC2(C)C` [Compound 62, Ethyl 4′-(3-ethylaminopropoxy)-3′-(5,5,8,8-tetramethyl-5,6,7,8-tetrahydronaphth-2-yl)biphenyl-4-carboxylate]: the melting point (in general, the temperature of the solid-liquid transition) came out at 148 °C.

As for `CC(C)NCCOc1ccc(-c2ccc(C(=O)O)cc2)cc1-c1ccc2c(c1)C(C)(C)CCC2(C)C` [Compound 12, 4′-(2-Isopropylaminoethoxy)-3′-(5,5,8,8-tetramethyl-5,6,7,8-tetrahydronaphth-2-yl)biphenyl-4-carboxylic acid], the Kd at RAR beta worked out at 4000 nM; at RAR gamma, 120 nM.

In the case of `CCCNCCCOc1ccc(-c2ccc(C(=O)OCC)cc2)cc1-c1ccc2c(c1)C(C)(C)CCC2(C)C` [Compound 56, Ethyl 4′-(3-propylaminopropoxy)-3′-(5,5,8,8-tetramethyl-5,6,7,8-tetrahydronaphth-2-yl)biphenyl-4-carboxylate], the melting point is 120 °C.

Take `CC1(C)CCC(C)(C)c2cc(-c3cc(-c4ccc(C(=O)O)cc4)ccc3OCCCCNC3CC3)ccc21` [Compound 59, 4′-(4-Cyclopropylaminobutoxy)-3′-(5,5,8,8-tetramethyl-5,6,7,8-tetrahydronaphth-2-yl)biphenyl-4-carboxylic acid]: the Kd at RAR alpha stood at 8000 nM; at RAR beta, 4000 nM; on RAR gamma, 1000 nM.

`CC1(C)CCC(C)(C)c2cc(-c3cc(-c4ccc(C(=O)O)cc4)ccc3OCCCCN)ccc21` [Compound 75, 4′-(4-Aminobutoxy)-3′-(5,5,8,8-tetramethyl-5,6,7,8-tetrahydronaphth-2-yl)biphenyl-4-carboxylic acid]: the figures for the Kd at RAR alpha, at RAR beta and at RAR gamma were 8000 nM, 2000 nM and 60 nM, respectively.

As for `CC(C)NCCCCOc1ccc(-c2ccc(C(=O)O)cc2)cc1-c1ccc2c(c1)C(C)(C)CCC2(C)C` [Compound 1, 4′-(4-Isopropylaminobutoxy)-3′-(5,5,8,8-tetramethyl-5,6,7,8-tetrahydronaphth-2-yl)biphenyl-4-carboxylic acid], the Kd on RAR alpha came to 1000 nM; on RAR beta it was 500 nM; on RAR gamma, 15 nM.

As for `CNCCCOc1ccc(-c2ccc(C(=O)O)cc2)cc1-c1ccc2c(c1)C(C)(C)CCC2(C)C` [Compound 61, 4′-(3-Methylaminopropoxy)-3′-(5,5,8,8-tetramethyl-5,6,7,8-tetrahydronaphth-2-yl)biphenyl-4-carboxylic acid], on RAR gamma, the Kd came to 30 nM.

Compound `CCOC(=O)c1ccc(-c2ccc(OCCCNC3CC3)c(-c3ccc4c(c3)C(C)(C)CCC4(C)C)c2)cc1` [Compound 50, Ethyl 4′-(3-cyclopropylaminopropoxy)-3′-(5,5,8,8-tetramethyl-5,6,7,8-tetrahydronaphth-2-yl)biphenyl-4-carboxylate] showed a melting point of 141 °C.

On to `CCOC(=O)c1ccc(-c2ccc(OCCCNC)c(-c3ccc4c(c3)C(C)(C)CCC4(C)C)c2)cc1` [Compound 60, Ethyl 4′-(3-methylaminopropoxy)-3′-(5,5,8,8-tetramethyl-5,6,7,8-tetrahydronaphth-2-yl)biphenyl-4-carboxylate], for which the melting point was found to be 141 °C.

In the case of `CCCCNCCCOc1ccc(-c2ccc(C(=O)OCC)cc2)cc1-c1ccc2c(c1)C(C)(C)CCC2(C)C` [Compound 52, Ethyl 4′-(3-butylaminopropoxy)-3′-(5,5,8,8-tetramethyl-5,6,7,8-tetrahydronaphth-2-yl)biphenyl-4-carboxylate], the melting point was 175 °C.
